This note sets out measurements from patent US8664257B2, “Oxygen-substituted 3-heteroaroylamino-propionic acid derivatives and their use as pharmaceuticals” (Sanofi, priority 2010, dated 2014).

In general, IC50 refers to the concentration at which inhibition is half-maximal.

This assay has as its target T1, Recombinant human cathepsin A (Homo sapiens, UniProt P10619).
T1 construct: Recombinant human cathepsin A (residues 29-480, with a C-terminal 10-His tag); 10-His (C); purchased R&D Systems 1049-SE
T1 sequence (P10619 29-312 limits assumed): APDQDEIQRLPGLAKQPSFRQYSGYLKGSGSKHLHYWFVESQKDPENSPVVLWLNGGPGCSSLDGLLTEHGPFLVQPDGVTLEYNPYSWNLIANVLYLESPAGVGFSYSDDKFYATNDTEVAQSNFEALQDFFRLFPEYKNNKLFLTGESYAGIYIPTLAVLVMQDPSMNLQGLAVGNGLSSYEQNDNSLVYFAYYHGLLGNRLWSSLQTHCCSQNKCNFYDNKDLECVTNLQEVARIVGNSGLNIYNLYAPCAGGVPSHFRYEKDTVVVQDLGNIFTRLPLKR
T1 sequence (P10619 327-480 limits assumed): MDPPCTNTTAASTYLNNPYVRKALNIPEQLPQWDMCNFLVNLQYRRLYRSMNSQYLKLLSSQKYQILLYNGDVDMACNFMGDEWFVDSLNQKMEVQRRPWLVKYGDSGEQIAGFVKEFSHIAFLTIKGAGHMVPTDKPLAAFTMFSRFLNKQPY
The assay can be described thus: Cathepsin A inhibitory activity. In kind it is biochemical. The method in brief: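 Read-out was microfluidic separation of cleaved vs. uncleaved Bodipy FL-bradykinin (2 μM), giving turnover, % inhibition and IC50. Compound and 833 ng/ml enzyme met for 15 min RT in pH 5.5 MES/DTT before substrate (15 min RT). The 29-480 His-tagged human enzyme was first activated by cathepsin L, then E-64 (10 μM).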

Setting [1] is: recombinant human cathepsin A 833 ng/ml, Bodipy FL-labeled bradykinin 2 μM, pH 5.5, read-out: CATH-A IC50.
The mark [2] stands for this setting: recombinant human cathepsin A, read-out: Activity (2): Cathepsin A inhibitory activity, IC50 class.
Setting [3] is: read-out: Activity (2): Cathepsin A inhibitory activity (IC50 class).

Structures are written as SMILES. Where two headings read alike, the source gives them in different places.

In the case of `O=C(O)CC(NC(=O)c1cc(O)n(-c2ccccc2Cl)n1)c1ccc(-c2ccccn2)cc1` (stereo not drawn) [Example 506, 3-{[1-(2-Chloro-phenyl)-5-hydroxy-1H-pyrazole-3-carbonyl]-amino}-3-(4-pyridin-2-yl-phenyl)-propionic acid], the IC50 runs as follows: under setting [1], 52.4 nM; under setting [2], under 100 nM.

With `O=C(O)C[C@H](NC(=O)c1cc(O)n(-c2ccccc2Cl)n1)c1ccccc1Cl` [Example 507, (S)-3-(2-Chloro-phenyl)-3-{[1-(2-chloro-phenyl)-5-hydroxy-1H-pyrazole-3-carbonyl]-amino}-propionic acid], the half-maximal inhibitory concentration (IC50) was 161 nM under setting [1] and 100 to 1000 nM under setting [2].

For `Cc1c(F)cccc1C(CC(=O)O)NC(=O)c1cc(O)n(-c2cccc(Cl)c2)n1` (stereo not drawn) [Example 508, 3-{[1-(3-Chloro-phenyl)-5-hydroxy-1H-pyrazole-3-carbonyl]-amino}-3-(3-fluoro-2-methyl-phenyl)-propionic acid], the IC50 under setting [1] was found to be 137 nM and the IC50 under setting [2] is 100 to 1000 nM.

With `O=C(O)CC(NC(=O)c1cc(O)n(-c2cccc(Cl)c2)n1)c1cc(F)ccc1Cl` (stereo not drawn) [Example 509, 3-(2-Chloro-5-fluoro-phenyl)-3-{[1-(3-chloro-phenyl)-5-hydroxy-1H-pyrazole-3-carbonyl]-amino}-propionic acid], the IC50 by setting is: under setting [1], 100 nM; under setting [2], 100 to 1000 nM.

In the case of `Cc1ccc(F)cc1C(CC(=O)O)NC(=O)c1cc(O)n(-c2cccc(Cl)c2)n1` (stereo not drawn) [Example 510, 3-{[1-(3-Chloro-phenyl)-5-hydroxy-1H-pyrazole-3-carbonyl]-amino}-3-(5-fluoro-2-methyl-phenyl)-propionic acid], the IC50 is, setting by setting: under setting [1], 175 nM; under setting [2], 100 to 1000 nM.

Turning to `O=C(O)CC(NC(=O)c1cc(O)n(-c2cccc(Cl)c2)n1)c1cc(Cl)ccc1Cl` (stereo not drawn) [Example 511, 3-{[1-(3-Chloro-phenyl)-5-hydroxy-1H-pyrazole-3-carbonyl]-amino}-3-(2,5-dichloro-phenyl)-propionic acid], the IC50 was 102 nM under setting [1] and 100 to 1000 nM under setting [2].

Take `Cc1ccc([C@H](CC(=O)O)NC(=O)c2cc(O)n(-c3cccc(Cl)c3)n2)cc1` [Example 512, (S)-3-{[1-(3-Chloro-phenyl)-5-hydroxy-1H-pyrazole-3-carbonyl]-amino}-3-p-tolyl-propionic acid]: the IC50 under setting [1] turned out to be 155 nM and the IC50 under setting [2] fell in the range of 100 to 1000 nM.

Regarding `O=C(O)CC(NC(=O)c1cc(O)n(-c2cccc(Cl)c2)n1)c1ccc(-c2ccccn2)cc1` (stereo not drawn) [Example 513, 3-{[1-(3-Chloro-phenyl)-5-hydroxy-1H-pyrazole-3-carbonyl]-amino}-3-(4-pyridin-2-yl-phenyl)-propionic acid], the IC50 runs as follows: under setting [1], 195 nM; under setting [2], 100 to 1000 nM.

Take `O=C(O)C[C@H](NC(=O)c1cc(O)n(-c2cccc(Cl)c2)n1)c1ccccc1Cl` [Example 514, (S)-3-(2-Chloro-phenyl)-3-{[1-(3-chloro-phenyl)-5-hydroxy-1H-pyrazole-3-carbonyl]-amino}-propionic acid]: the IC50 is 304 nM under setting [1] and 100 to 1000 nM under setting [2].

As for `O=C(O)CC(NC(=O)c1cc(O)n(-c2ccc(Cl)cc2)n1)c1ccc(-c2ccccn2)cc1` (stereo not drawn) [Example 515, 3-{[1-(4-Chloro-phenyl)-5-hydroxy-1H-pyrazole-3-carbonyl]-amino}-3-(4-pyridin-2-yl-phenyl)-propionic acid], the IC50 under setting [1] worked out at 238 nM and the IC50 under setting [2] was in the range of 100 to 1000 nM.

On to `Cc1c(F)cccc1C(CC(=O)O)NC(=O)c1cc(O)n(-c2ccccc2F)n1` (stereo not drawn) [Example 516, 3-(3-Fluoro-2-methyl-phenyl)-3-{[1-(2-fluoro-phenyl)-5-hydroxy-1H-pyrazole-3-carbonyl]-amino}-propionic acid], for which the IC50 by setting is: under setting [1], 102 nM; under setting [2], 100 to 1000 nM.

For `O=C(O)CC(NC(=O)c1cc(O)n(-c2ccccc2F)n1)c1cc(F)ccc1F` (stereo not drawn) [Example 517], the IC50 under setting [2] was 100 to 1000 nM.

Regarding `O=C(O)CC(NC(=O)c1cc(O)n(-c2ccccc2F)n1)c1ccc(N2CCOCC2)cc1` (stereo not drawn) [Example 518], the IC50 under setting [2] lay within 1000 to 30000 nM.

In the case of `O=C(O)C[C@H](NC(=O)c1cc(O)n(-c2ccccc2F)n1)c1ccccc1Cl` [Example 519], the IC50 under setting [2] was in the range of 100 to 1000 nM.

With `COc1ccc(F)cc1C(CC(=O)O)NC(=O)c1cc(O)n(-c2cccc(F)c2)n1` (stereo not drawn) [Example 520], the IC50 under setting [2] fell in the range of 100 to 1000 nM.

In the case of `O=C(O)CC(NC(=O)c1cc(O)n(-c2cccc(F)c2)n1)c1ccc(-c2ccccn2)cc1` (stereo not drawn) [Example 521], the IC50 under setting [2] fell in the range of 100 to 1000 nM.

Regarding `O=C(O)C[C@H](NC(=O)c1cc(O)n(-c2cccc(F)c2)n1)c1ccccc1Cl` [Example 522], the IC50 under setting [2] lay within 100 to 1000 nM.

As to `Cc1c(F)cccc1C(CC(=O)O)NC(=O)c1cc(O)n(-c2ccc(F)cc2)n1` (stereo not drawn) [Example 523, 3-(3-Fluoro-2-methyl-phenyl)-3-{[1-(4-fluoro-phenyl)-5-hydroxy-1H-pyrazole-3-carbonyl]-amino}-propionic acid], the IC50 under setting [2] is 100 to 1000 nM.

For the compound `O=C(O)CC(NC(=O)c1cc(O)n(-c2ccc(F)cc2)n1)c1cc(F)ccc1Cl` (stereo not drawn) [Example 524, 3-(2-Chloro-5-fluoro-phenyl)-3-{[1-(4-fluoro-phenyl)-5-hydroxy-1H-pyrazole-3-carbonyl]-amino}-propionic acid], the IC50 under setting [2] is 100 to 1000 nM.

`COc1ccc(F)cc1C(CC(=O)O)NC(=O)c1cc(O)n(-c2ccc(F)cc2)n1` (stereo not drawn) [Example 525, 3-(5-Fluoro-2-methoxy-phenyl)-3-{[1-(4-fluoro-phenyl)-5-hydroxy-1H-pyrazole-3-carbonyl]-amino}-propionic acid]: the IC50 by setting is: under setting [1], 1510 nM; under setting [2], 1000 to 30000 nM.

As to `Cc1ccc([C@H](CC(=O)O)NC(=O)c2cc(O)n(-c3ccc(F)cc3)n2)cc1` [Example 526, (S)-3-{[1-(4-Fluoro-phenyl)-5-hydroxy-1H-pyrazole-3-carbonyl]-amino}-3-p-tolyl-propionic acid], the IC50 is 358 nM under setting [1] and 100 to 1000 nM under setting [2].

Consider `O=C(O)CC(NC(=O)c1cc(O)n(-c2ccc(F)cc2)n1)c1ccc(-c2ccccn2)cc1` (stereo not drawn) [Example 527, 3-{[1-(4-Fluoro-phenyl)-5-hydroxy-1H-pyrazole-3-carbonyl]-amino}-3-(4-pyridin-2-yl-phenyl)-propionic acid], for which the IC50 was 152 nM under setting [1] and 100 to 1000 nM under setting [2].

As for `O=C(O)C[C@H](NC(=O)c1cc(O)n(-c2ccc(F)cc2)n1)c1ccccc1Cl` [Example 528, (S)-3-(2-Chloro-phenyl)-3-{[1-(4-fluoro-phenyl)-5-hydroxy-1H-pyrazole-3-carbonyl]-amino}-propionic acid], the IC50 under setting [1] is 413 nM and the IC50 under setting [2] lay in the range of 100 to 1000 nM.

Regarding `COc1ccc(-c2ccc(C(CC(=O)O)NC(=O)c3cc(O)n(-c4ccccc4F)n3)cc2)cn1` (stereo not drawn) [Example 531], the IC50 under setting [2] lay in the range of 100 to 1000 nM.

As to `Cc1ccccc1[C@H](CC(=O)O)NC(=O)c1cc(O)n(-c2ccccc2C)n1` [Example 532], the IC50 under setting [2] was under 100 nM.

Turning to `Cc1ccccc1[C@H](CC(=O)O)NC(=O)c1cc(O)n(Cc2ccccc2)n1` [Example 533], the IC50 under setting [2] lay in the range of 100 to 1000 nM.

Take `COc1cc(C(=O)N[C@@H](CC(=O)O)c2ccccc2C)nn1-c1ccccc1` [Example 534, (S)-3-[(5-Methoxy-1-phenyl-1H-pyrazole-3-carbonyl)-amino]-3-o-tolyl-propionic acid]: under setting [2], the IC50 was under 100 nM.

Regarding `O=C(O)CC(NC(=O)c1cc(O)n(-c2ccccc2F)n1)c1ccccc1` (stereo not drawn) [Example 535], the IC50 under setting [2] lay in the range of 100 to 1000 nM.

As for `Cc1ccccc1-n1nc(C(=O)NC(CC(=O)O)c2ccc(-c3ccc(F)cc3)cc2)cc1O` (stereo not drawn) [Example 536], the IC50 under setting [2] was under 100 nM.

Consider `Cc1ccccc1[C@H](CC(=O)O)NC(=O)c1cc(O)n(-c2ccccc2C(F)(F)F)n1` [Example 537], for which the IC50 under setting [2] was in the range of 100 to 1000 nM.

Regarding `O=C(O)CC(NC(=O)c1cc(O)n(Cc2ccccc2)n1)c1ccc(-c2ccc(F)cc2)cc1` (stereo not drawn) [Example 538], under setting [3], the 50% inhibitory concentration (IC50) was in the range of 100 to 1000 nM.

As for `O=C(O)CC(NC(=O)c1cc(O)n(-c2ccccc2)n1)c1ccc(-c2ccccc2Cl)cc1` (stereo not drawn) [Example 539], the IC50 under setting [3] was 100 to 1000 nM.

Turning to `O=C(O)CC(NC(=O)c1cc(O)n(-c2ccccc2Cl)n1)c1ccc(-c2cccc(Cl)c2)cc1` (stereo not drawn) [Example 540], the IC50 under setting [3] was 100 to 1000 nM.

As for `O=C(O)CC(NC(=O)c1cc(O)n(-c2ccccc2F)n1)c1ccc(-c2cccc(Cl)c2)cc1` (stereo not drawn) [Example 541], under setting [3], the IC50 lay within 100 to 1000 nM.

Regarding `O=C(O)CC(NC(=O)c1cc(O)n(-c2ccccc2F)n1)c1ccc(-c2ccccc2Cl)cc1` (stereo not drawn) [Example 542], the IC50 under setting [3] is under 100 nM.

With `COc1cc(C(=O)NC(CC(=O)O)c2ccc(-c3ccc(F)cc3)cc2)nn1-c1ccccc1F` (stereo not drawn) [Example 543], the IC50 under setting [3] was in the range of 100 to 1000 nM.

On to `COc1cc(C(=O)NC(CC(=O)O)c2ccc(-c3ccc(F)cc3)cc2)nn1-c1ccccc1` (stereo not drawn) [Example 544], for which the IC50 under setting [3] lay within 1000 to 30000 nM.

With `COc1cc(-c2ccccc2)ccc1C(CC(=O)O)NC(=O)c1cc(O)n(-c2ccccc2)n1` (stereo not drawn) [Example 545, 3-[(5-Hydroxy-1-phenyl-1H-pyrazole-3-carbonyl)-amino]-3-(3-methoxy-biphenyl-4-yl)-propionic acid], the IC50 is, setting by setting: under setting [3], 1000 to 30000 nM; under setting [1], 1110 nM.
